# Experimental data taken from the supplement of paper PMC5770543.
# ± gives the standard deviation.
# Experiments:
# [1] = system: Plasmodium falciparum 3D7; assay: EC50 growth inhibition (60 h, SYBR Green); details: stage: ring-stage start
# [2] = system: Toxoplasma gondii RH tachyzoites; assay: % growth inhibition vs DMSO (48 h luciferase); higher = more inhibition; details: 10 µM
# [3] = system: Plasmodium falciparum 3D7; assay: % inhibition of schizont-to-ring transition vs DMSO; higher = more inhibition
# How it was run: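 Schizont-to-ring transition inhibition compares new ring formation with that in vehicle controls. Synchronised P. falciparum schizonts (about 40–42 hours post-invasion, 1% parasitemia, 2.5% hematocrit, AlbuMAX-supplemented RPMI) were exposed to 1, 3 or 10 µM compound, after which rings were counted by Hoechst 33342 flow cytometry across three experiments.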
# [4] = system: Toxoplasma gondii RH tachyzoites; assay: median egress time after A23187 ionophore; higher = stronger egress inhibition; details: 10 µM; pretreatment time: 24 h
# Description: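 T. gondii RH tachyzoites expressing firefly luciferase were grown in HFF monolayers for 48 h with compound. % growth inhibition at 10 µM and EC50 (2-fold dilutions from 10 µM) were read by luminescence relative to 1% DMSO; EC50 listed as 10 (not determined, <80% inhibition) is left out. Plaque assays: 50 tachyzoites per well with 10 µM compound for 8-10 days, giving plaque count and area by crystal violet/ImageJ. Egress: median time to egress after 1 µM A23187 ionophore following 24 h of 10 µM compound (DMSO ~1.8 min; >10 = no egress within 10 min).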
# [5] = system: Toxoplasma gondii RH tachyzoites; assay: plaque count per well; higher = less inhibition; extreme values may be limits of the assay; details: 10 µM; 8-10 days
# How it was run: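 Fifty T. gondii RH tachyzoites were added to each well of six-well plates holding confluent HFF monolayers preseeded with compound at 10 µM. Plates were left undisturbed for 8 to 10 days, then fixed with methanol and stained with crystal violet. Plaques were imaged and counted per well with ImageJ, with untreated and 1% DMSO-treated wells as controls. Plaque count per well reflects delayed-death inhibition of parasite growth.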
# [6] = system: Plasmodium falciparum 3D7; assay: R50 (50% reduction of ring formation, egress/invasion); higher = less potent
# Description: (§1)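 P. falciparum asexual blood stages. EC50: sorbitol-synchronized 3D7 rings were treated with 2-fold dilutions from 10 µM for 60 h, with parasitemia read by SYBR Green I fluorescence; EC50 listed as 10 means not determined and is left out. Stage transition screen: ~40-42 hpi schizonts were treated at 1, 3 and 10 µM; new rings were counted by Hoechst flow cytometry and % inhibition is relative to DMSO controls (mean of 3 experiments). R50: concentration giving 50% reduction of new ring formation versus DMSO in 3D7, K1 and KH004-003, from flow cytometry after 12-20 h treatment of schizonts.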
# [7] = system: Plasmodium falciparum K1 (chloroquine resistant); assay: as above
# Description: as §1
# [8] = system: Plasmodium falciparum KH004-003 (artemisinin resistant); assay: as above
# Description: as §1
# [9] = molecular target: Toxoplasma gondii RH tachyzoites; assay: EC50 growth inhibition (48 h luciferase)
# 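For % growth inhibition vs DMSO (48 h luciferase) in this document: tested in triplicate wells of 96-well plates on confluent HFF monolayers, with 1% DMSO wells as negative control in four replicates.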
SMILES,EC50 growth inhibition [1],% growth inhibition [2],% inhibition of schizont-to-ring transition ([3]; 1 µM),% inhibition of schizont-to-ring transition ([3]; 3 µM),% inhibition of schizont-to-ring transition ([3]; 10 µM),median egress time [4],plaque count per well [5],R50 [6],R50 [7],R50 [8],EC50 growth inhibition [9]
CCCCCCc1cc2cc(-c3csc(C=Cc4ccccc4)n3)c(=O)oc2cc1O,8400 nM,8.97 ± 4.1%,9.04%,16%,39.7%,1.94 min,16,–,–,–,–
CCOc1cc(Cl)c(C(C)NC(=O)c2ccccc2)cc1OCC (stereo not drawn),1450 nM,< 0%,46.5%,78.6%,76.7%,2.67 min,22,–,–,–,–
O=C(NC1CCN(Cc2ccccc2)CC1)c1cc(-c2cccnc2)nc2ccc(Cl)cc12,2560 nM,19.7 ± 17%,13.5%,17.4%,37.7%,2.67 min,34,–,–,–,–
CCOc1cccc(C(=O)Nc2ccc(-c3nc4ccccc4[nH]3)cc2)c1,–,< 0%,7.94%,22.4%,54.6%,1.87 min,28,–,–,–,–
COc1ccc2sc(N(Cc3cccnc3)C(=O)c3ccc(C#N)cc3)nc2c1,6590 nM,< 0%,35.3%,39.1%,51.7%,> 10 min,21,–,–,–,–
Cc1c(C)n(CC(O)CNC2CCCCC2C)c2ccccc12 (stereo not drawn),2180 nM,< 0%,14.4%,32.3%,64.2%,3.07 min,23,–,–,–,–
CC(=O)Nc1nnc(SCc2c(C)cc(C(C)(C)C)cc2C)s1,–,< 0%,42.7%,46.5%,55.4%,2.4 min,21,–,–,–,–
Cc1cc(NC(=O)c2ccc(-c3ccccc3)cc2)no1,1810 nM,< 0%,45.3%,53.4%,61.7%,2.27 min,26,–,–,–,–
Cc1ccc(C)c(-c2csc(Nc3ccc(C)c(C)c3)n2)c1,–,< 0%,13.5%,16%,20.4%,3.2 min,22,–,–,–,–
COc1ccc(C2c3ccc4ccccc4c3Oc3ncn(CCCn4ccnc4)c(=N)c32)cc1OC (stereo not drawn),383 nM,65.4 ± 9%,40%,73.6%,75.6%,2.27 min,–,2.5 µM,2.92 µM,2.4 µM,–
CCOc1ccccc1CNC(=O)C1c2ccccc2C(=O)N(CC(C)C)C1c1cccs1 (stereo not drawn),649 nM,70.7 ± 11%,38.3%,65.3%,74.8%,–,–,2.06 µM,2.11 µM,2.32 µM,–
COc1cc(OC)c(N(C)C(=O)c2cc3c(s2)-c2ccccc2S(=O)(=O)C3)cc1Cl,1190 nM,< 0%,55.9%,60%,66.3%,8.4 min,33,0.868 µM,0.933 µM,0.352 µM,–
OC(Cn1nnc2ccccc21)Cn1c2ccc(Br)cc2c2cc(Br)ccc21 (stereo not drawn),–,22.8 ± 3.4%,< 0%,30.6%,45.7%,–,–,2.87 µM,1.23 µM,0.102 µM,–
Oc1ccc(Br)cc1CN1CCN(Cc2cccc(F)c2)CC1,787 nM,6.13 ± 7.3%,19%,40.9%,60.6%,2.27 min,21,–,–,–,–
CCOc1ccccc1CN1CCc2nc3cc(C(C)(C)C)nn3c(O)c2C1,2290 nM,< 0%,34.2%,42.8%,49.8%,1.47 min,28,–,–,–,–
Cc1cc(Nc2ccc(OCc3ccccc3)cc2)nc2cc(O)ccc12,195 nM,100.3 ± 0.21%,64.2%,71.9%,69.8%,–,–,0.97 µM,0.291 µM,0.702 µM,2850 nM
CCOC(=O)c1cn(CC)c2cc(N3CCCCC3)c(F)cc2c1=O,670 nM,67.3 ± 6.7%,45.5%,61.4%,65.5%,–,–,0.738 µM,1.48 µM,0.155 µM,–
CCOc1cc2c(cc1OCC)C(c1cc(OC)c(O)cc1Cl)NCC2 (stereo not drawn),711 nM,37.4 ± 13%,11.2%,60%,76.1%,2.27 min,–,2.71 µM,0.342 µM,1.32 µM,–
Oc1ccc(-c2nc(-c3ccc4oc5ccc(-c6[nH]c(-c7ccc(O)cc7)nc6-c6ccccc6)cc5c4c3)c(-c3ccccc3)[nH]2)cc1,1890 nM,< 0%,8.13%,15.7%,48.8%,1.47 min,11,–,–,–,–
O=C(NC1CCCCC1)C(c1cccs1)N(CCc1ccccc1)C(=O)c1ccco1 (stereo not drawn),1720 nM,< 0%,38.6%,42%,46.4%,2.06 min,39,–,–,–,–
Cc1cc(C)c2c(c1)OCN(Cc1ccccc1Cl)C2,3620 nM,4.95 ± 8.6%,< 0%,17.9%,59.9%,2 min,27,–,–,–,–
COc1cccc(NC(=O)[C@H](C(C)C)n2c(=O)[nH]c3ccccc3c2=O)c1,51.4 nM,76.9 ± 9.3%,79.8%,80.5%,79.4%,2.67 min,–,0.28 µM,0.212 µM,0.183 µM,–
CC(NCc1ccccc1)c1cc(Cl)ccc1O (stereo not drawn),801 nM,14.9 ± 6%,29.2%,44.4%,66.6%,2.27 min,29,–,–,–,–
COc1cc(-c2nc(-c3ccccc3)c(-c3ccccc3)[nH]2)cc(OC)c1O,8620 nM,6.6 ± 11%,13.7%,15.2%,37.4%,2.93 min,22,–,–,–,–
